PubChem BioAssay (NCI)
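Values below derive from 48-hour exposures of cells grown in 96-well plates, with endpoints linearly interpolated between the two concentrations bracketing the appropriate inhibition level. GI50: concentration for 50% inhibition of growth. TGI marks complete inhibition of growth.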

Legend:
Assay in all cases: inhibition of tumour cell growth, NCI panel, 48 h
OVCAR-8 ovarian = test system: OVCAR-8 ovarian
OVCAR-5 ovarian = test system: OVCAR-5 ovarian
HCT-15 colon = test system: HCT-15 colon
UO-31 renal = test system: UO-31 renal
SNB-75 CNS = test system: SNB-75 CNS
PC-3 prostate = test system: PC-3 prostate
NCI-H460 lung = test system: NCI-H460 lung
NCI-H23 lung = test system: NCI-H23 lung
A549 NSCLC = test system: A549 NSCLC
KM12 colon = test system: KM12 colon
SK-MEL-28 melanoma = test system: SK-MEL-28 melanoma
BT-549 breast = test system: BT-549 breast
RPMI-8226 leukemia = test system: RPMI-8226 leukemia
786-0 renal = test system: 786-0 renal
CCRF-CEM leukemia = test system: CCRF-CEM leukemia
NCI-H522 lung = test system: NCI-H522 lung
EKVX NSCLC = test system: EKVX NSCLC
OVCAR-4 ovarian = test system: OVCAR-4 ovarian
NCI/ADR-RES ovarian = test system: NCI/ADR-RES ovarian
OVCAR-3 ovarian = test system: OVCAR-3 ovarian
SK-OV-3 ovarian = test system: SK-OV-3 ovarian
SF-268 CNS = test system: SF-268 CNS
HCT-116 colon = test system: HCT-116 colon
TK-10 renal = test system: TK-10 renal
SNB-19 CNS = test system: SNB-19 CNS
UACC-257 melanoma = test system: UACC-257 melanoma
M14 melanoma = test system: M14 melanoma
HCC-2998 colon = test system: HCC-2998 colon
SK-MEL-5 melanoma = test system: SK-MEL-5 melanoma
HOP-62 NSCLC = test system: HOP-62 NSCLC
SK-MEL-2 melanoma = test system: SK-MEL-2 melanoma
T-47D breast = test system: T-47D breast
NCI-H226 lung = test system: NCI-H226 lung
HT29 colon = test system: HT29 colon
MDA-MB-231 breast = test system: MDA-MB-231 breast
ACHN renal = test system: ACHN renal
A498 renal = test system: A498 renal
HOP-92 NSCLC = test system: HOP-92 NSCLC
DU-145 prostate = test system: DU-145 prostate
SW-620 colon = test system: SW-620 colon
RXF 393 renal = test system: RXF 393 renal
U251 CNS = test system: U251 CNS
COLO 205 colon = test system: COLO 205 colon
K-562 leukemia = test system: K-562 leukemia
HL-60(TB) leukemia = test system: HL-60(TB) leukemia
CAKI-1 renal = test system: CAKI-1 renal
SF-539 CNS = test system: SF-539 CNS
UACC-62 melanoma = test system: UACC-62 melanoma
MDA-MB-435 = test system: MDA-MB-435
MOLT-4 leukemia = test system: MOLT-4 leukemia
SR leukemia = test system: SR leukemia
SF-295 CNS = test system: SF-295 CNS
MALME-3M melanoma = test system: MALME-3M melanoma
MCF7 breast = test system: MCF7 breast
LOX IMVI melanoma = test system: LOX IMVI melanoma
HS 578T breast = test system: HS 578T breast
SN12C renal = test system: SN12C renal
IGROV1 ovarian = test system: IGROV1 ovarian
MDA-N = test system: MDA-N

Cc1nc2sc(C(=O)Nc3cccc(Br)c3C)c(N)c2cc1C(O)c1ccccc1 (stereo not drawn)
GI50 (OVCAR-8 ovarian): 0.0487 µM | TGI (OVCAR-8 ovarian): > 100 µM | GI50 (OVCAR-5 ovarian): 0.061 µM | TGI (OVCAR-5 ovarian): > 60.2 µM | GI50 (HCT-15 colon): 0.0348 µM | TGI (HCT-15 colon): 11.5 µM | GI50 (UO-31 renal): 0.0643 µM | TGI (UO-31 renal): 12.5 µM | GI50 (SNB-75 CNS): 0.0279 µM | TGI (SNB-75 CNS): 13.4 µM | GI50 (PC-3 prostate): 0.0462 µM | TGI (PC-3 prostate): 37.7 µM | GI50 (NCI-H460 lung): 0.0342 µM | TGI (NCI-H460 lung): 0.156 µM | GI50 (NCI-H23 lung): 0.0616 µM | TGI (NCI-H23 lung): 15 µM | GI50 (A549 NSCLC): 0.0466 µM | TGI (A549 NSCLC): > 100 µM | GI50 (KM12 colon): 0.0373 µM | TGI (KM12 colon): 4.76 µM | GI50 (SK-MEL-28 melanoma): 1.51 µM | TGI (SK-MEL-28 melanoma): 22 µM | GI50 (BT-549 breast): 0.044 µM | TGI (BT-549 breast): 2.93 µM | GI50 (RPMI-8226 leukemia): 0.0455 µM | TGI (RPMI-8226 leukemia): 7.08 µM | GI50 (786-0 renal): 0.0601 µM | TGI (786-0 renal): 10.1 µM | GI50 (CCRF-CEM leukemia): 0.0406 µM | TGI (CCRF-CEM leukemia): > 100 µM | GI50 (NCI-H522 lung): 0.0286 µM | TGI (NCI-H522 lung): 2.55 µM | GI50 (EKVX NSCLC): 0.283 µM | TGI (EKVX NSCLC): 43.8 µM | GI50 (OVCAR-4 ovarian): 0.147 µM | TGI (OVCAR-4 ovarian): > 70.5 µM | GI50 (NCI/ADR-RES ovarian): 0.032 µM | TGI (NCI/ADR-RES ovarian): 12.8 µM | GI50 (OVCAR-3 ovarian): 0.032 µM | TGI (OVCAR-3 ovarian): 1.02 µM | GI50 (SK-OV-3 ovarian): 0.0609 µM | TGI (SK-OV-3 ovarian): 75.8 µM | GI50 (SF-268 CNS): 0.146 µM | TGI (SF-268 CNS): 13 µM | GI50 (HCT-116 colon): 0.0371 µM | TGI (HCT-116 colon): 11.8 µM | GI50 (TK-10 renal): 1.49 µM | TGI (TK-10 renal): > 63 µM | GI50 (SNB-19 CNS): 0.0598 µM | TGI (SNB-19 CNS): > 100 µM | GI50 (UACC-257 melanoma): 1.46 µM | TGI (UACC-257 melanoma): 27 µM | GI50 (M14 melanoma): 0.0306 µM | TGI (M14 melanoma): 14.7 µM | GI50 (HCC-2998 colon): 0.0351 µM | TGI (HCC-2998 colon): 2.12 µM | GI50 (SK-MEL-5 melanoma): 0.0468 µM | TGI (SK-MEL-5 melanoma): 0.263 µM | GI50 (HOP-62 NSCLC): 0.0549 µM | TGI (HOP-62 NSCLC): 18.5 µM | GI50 (SK-MEL-2 melanoma): 0.249 µM | TGI (SK-MEL-2 melanoma): 15.7 µM | GI50 (T-47D breast): 0.0554 µM | TGI (T-47D breast): 67.7 µM | GI50 (NCI-H226 lung): 0.546 µM | TGI (NCI-H226 lung): 22.4 µM | GI50 (HT29 colon): 0.0374 µM | TGI (HT29 colon): 12.7 µM | GI50 (MDA-MB-231 breast): 0.0473 µM | TGI (MDA-MB-231 breast): 5.66 µM | GI50 (ACHN renal): 0.0743 µM | TGI (ACHN renal): 14.3 µM | GI50 (A498 renal): 0.0181 µM | TGI (A498 renal): 0.058 µM | GI50 (HOP-92 NSCLC): 1.33 µM | TGI (HOP-92 NSCLC): 16.5 µM | GI50 (DU-145 prostate): 0.0422 µM | TGI (DU-145 prostate): 5.16 µM | GI50 (SW-620 colon): 0.0382 µM | TGI (SW-620 colon): 19.3 µM | GI50 (RXF 393 renal): 0.0294 µM | TGI (RXF 393 renal): 26 µM | GI50 (U251 CNS): 0.0438 µM | TGI (U251 CNS): 14.6 µM | GI50 (COLO 205 colon): 0.0464 µM | TGI (COLO 205 colon): 1.07 µM | GI50 (K-562 leukemia): 0.0354 µM | TGI (K-562 leukemia): > 100 µM | GI50 (HL-60(TB) leukemia): 0.03 µM | TGI (HL-60(TB) leukemia): 0.0876 µM | GI50 (CAKI-1 renal): 0.0601 µM | TGI (CAKI-1 renal): 6.63 µM | GI50 (SF-539 CNS): 0.0256 µM | TGI (SF-539 CNS): 0.0733 µM | GI50 (UACC-62 melanoma): 0.0566 µM | TGI (UACC-62 melanoma): 9.59 µM | GI50 (MDA-MB-435): 0.0198 µM | TGI (MDA-MB-435): 0.0552 µM | GI50 (MOLT-4 leukemia): 0.0556 µM | TGI (MOLT-4 leukemia): > 100 µM | GI50 (SR leukemia): 0.0374 µM | TGI (SR leukemia): > 100 µM | GI50 (SF-295 CNS): 0.0335 µM | TGI (SF-295 CNS): 6.64 µM | GI50 (MALME-3M melanoma): 0.1 µM | TGI (MALME-3M melanoma): 20.5 µM | GI50 (MCF7 breast): 0.0373 µM | TGI (MCF7 breast): 13.1 µM | GI50 (LOX IMVI melanoma): 0.0496 µM | TGI (LOX IMVI melanoma): 6.93 µM | GI50 (HS 578T breast): 0.0345 µM | TGI (HS 578T breast): 6.04 µM | GI50 (SN12C renal): 0.0581 µM | TGI (SN12C renal): 6.04 µM | GI50 (IGROV1 ovarian): 0.0487 µM | TGI (IGROV1 ovarian): 13.2 µM

C=C(COCO)C(C)=O
TGI (OVCAR-8 ovarian): 24.6 µM | TGI (OVCAR-5 ovarian): 35.3 µM | TGI (HCT-15 colon): 39.6 µM | TGI (UO-31 renal): 25.7 µM | TGI (SNB-75 CNS): 30.5 µM | TGI (PC-3 prostate): 34.8 µM | TGI (NCI-H460 lung): 48.2 µM | TGI (NCI-H23 lung): 35.4 µM | TGI (A549 NSCLC): > 64.7 µM | TGI (KM12 colon): > 54.5 µM | TGI (SK-MEL-28 melanoma): 32 µM | TGI (MDA-N): 33.5 µM | TGI (RPMI-8226 leukemia): 5.64 µM | TGI (786-0 renal): 25.6 µM | TGI (CCRF-CEM leukemia): 9.64 µM | TGI (NCI-H522 lung): 3.75 µM | TGI (EKVX NSCLC): 46.9 µM | TGI (OVCAR-4 ovarian): 37.2 µM | TGI (NCI/ADR-RES ovarian): 51.5 µM | TGI (OVCAR-3 ovarian): 26.6 µM | TGI (SK-OV-3 ovarian): > 100 µM | TGI (SF-268 CNS): 38 µM | TGI (HCT-116 colon): 26.7 µM | TGI (TK-10 renal): 26.9 µM | TGI (SNB-19 CNS): > 100 µM | TGI (UACC-257 melanoma): 31.1 µM | TGI (M14 melanoma): 26.8 µM | TGI (HCC-2998 colon): > 58.4 µM | TGI (SK-MEL-5 melanoma): 31.5 µM | TGI (HOP-62 NSCLC): > 68.5 µM | TGI (SK-MEL-2 melanoma): 40.5 µM | TGI (T-47D breast): 36.7 µM | TGI (NCI-H226 lung): > 100 µM | TGI (HT29 colon): 35 µM | TGI (MDA-MB-231 breast): 33.6 µM | TGI (ACHN renal): 29.2 µM | TGI (A498 renal): 49 µM | TGI (HOP-92 NSCLC): 48.9 µM | TGI (DU-145 prostate): > 65.8 µM | TGI (SW-620 colon): 11.1 µM | TGI (RXF 393 renal): 29.4 µM | TGI (U251 CNS): 47.2 µM | TGI (COLO 205 colon): 20.8 µM | TGI (K-562 leukemia): > 27 µM | TGI (HL-60(TB) leukemia): 5.78 µM | TGI (CAKI-1 renal): 5.42 µM | TGI (SF-539 CNS): 13.6 µM | TGI (UACC-62 melanoma): 32.3 µM | TGI (MDA-MB-435): 28.3 µM | TGI (MOLT-4 leukemia): 6.08 µM | TGI (SF-295 CNS): > 100 µM | TGI (MALME-3M melanoma): 23.5 µM | TGI (MCF7 breast): 34.5 µM | TGI (LOX IMVI melanoma): 31.7 µM | TGI (HS 578T breast): 62.7 µM | TGI (SN12C renal): 33 µM | TGI (IGROV1 ovarian): 35.9 µM
